Test results reported in PubChem BioAssay AID2050 (NMMLSC, 2009).
Calls of active or inactive are those of the source.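 How the source made its calls: active means EC50 at or below 30 µM together with a response span of at least a set limit; inactive means the rest.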

target: GTPase HRas (Homo sapiens) (UniProt P01112); experiment: inhibition of fluorescent GTP binding to activated Ras – biochemical, pyrazoline analogs, multiplex bead flow cytometry, SAR follow-up (AID 2050); conditions: GST-Ras beads, Bodipy-FL-GTP binding
Sequence (P01112 whole entry, looked up): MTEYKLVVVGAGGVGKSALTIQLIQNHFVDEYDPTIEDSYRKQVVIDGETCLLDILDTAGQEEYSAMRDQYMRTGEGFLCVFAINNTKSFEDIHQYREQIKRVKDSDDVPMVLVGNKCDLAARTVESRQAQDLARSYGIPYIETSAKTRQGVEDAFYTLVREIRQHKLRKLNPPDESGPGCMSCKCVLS

EC50, inactive:
O=[N+]([O-])c1ccc(N2N=C(c3ccccc3)CC2c2ccc(O)cc2)cc1 (configuration not stated) > 30 µM
NS(=O)(=O)c1ccc(N2N=C(c3ccccc3)CC2c2ccc(Br)cc2)cc1 (configuration not stated) > 30 µM
COc1ccc(C2CC(C(C)(C)C)=NN2c2ccc(S(N)(=O)=O)cc2)cc1 (configuration not stated) > 30 µM
CC(=O)Oc1ccc(C2=NN(c3ccccc3)C(c3ccccc3)C2)cc1 (configuration not stated) > 30 µM
Clc1cccc(N2N=C(c3ccccc3)CC2c2ccccc2)c1 (configuration not stated) > 30 µM
COc1ccccc1C1CC(c2ccccc2)=NN1c1ccccc1 (configuration not stated) > 30 µM
COc1ccc(C2CC(c3ccc(F)cc3)=NN2c2ccc(S(N)(=O)=O)cc2)cc1 (configuration not stated) > 30 µM
FC(F)(F)c1ccccc1C1CC(c2ccc(Br)cc2)=NN1c1ccccc1 (configuration not stated) > 30 µM
COc1ccc(C2CC(c3ccccc3OC)=NN2c2ccc(S(N)(=O)=O)cc2)cc1 (configuration not stated) > 30 µM
NS(=O)(=O)c1ccc(N2N=C(c3ccccc3)CC2c2cccc(Br)c2)cc1 (configuration not stated) > 30 µM
COc1ccc(C2CC(c3ccc(N(C)C)cc3)=NN2c2ccc(S(N)(=O)=O)cc2)cc1 (configuration not stated) > 30 µM
Cc1ccccc1N1N=C(c2ccccc2)CC1c1ccc(N(C)C)cc1 (configuration not stated) > 30 µM
O=S(=O)(c1ccc(N2N=C(c3ccc(Br)cc3)CC2c2ccccc2)cc1)C(F)F (configuration not stated)
COc1ccc(C2=NN(c3ccccc3)C(c3ccc(Cl)cc3)C2)cc1 (configuration not stated)
COc1ccc(C2CC(c3cccc(C(F)(F)F)c3)=NN2c2ccc(S(N)(=O)=O)cc2)cc1 (configuration not stated) > 30 µM
COc1cccc(C2CC(c3ccccc3)=NN2c2ccc(S(N)(=O)=O)cc2)c1 (configuration not stated) > 30 µM
O=[N+]([O-])c1cccc(C2CC(c3ccccc3)=NN2c2ccccc2)c1 (configuration not stated) > 30 µM
COc1ccc(C2CC(c3ccccc3)=NN2c2ccc(S(N)(=O)=O)cc2)cc1OC (configuration not stated) > 30 µM
COc1ccc(C2=NN(c3cccc(F)c3)C(c3ccc(OC)cc3)C2)cc1 (configuration not stated) > 30 µM
Cc1cccc(N2N=C(c3ccccc3)CC2c2ccccc2)c1 (configuration not stated) > 30 µM
Clc1ccc(N2N=C(c3ccccc3)CC2c2ccccc2)cc1 (configuration not stated) > 30 µM
COc1ccc(-c2cc(-c3ccccc3)nn2-c2ccc(S(N)(=O)=O)cc2)cc1 > 30 µM
Cc1ccccc1N1N=C(c2ccccc2)CC1c1cccc([N+](=O)[O-])c1 (configuration not stated) > 30 µM
NS(=O)(=O)c1ccc(N2N=C(c3ccc(Br)cc3)CC2c2ccc(F)cc2)cc1 (configuration not stated) > 30 µM
Brc1ccc(N2N=C(c3ccccc3)CC2c2ccccc2)cc1 (configuration not stated) > 30 µM
COc1ccc(C2CC(c3cccc(OC)c3)=NN2c2ccc(S(N)(=O)=O)cc2)cc1 (configuration not stated) > 30 µM
COc1ccccc1N1N=C(c2ccccc2)CC1c1ccccc1 (configuration not stated) > 30 µM
COc1ccc(C2CC(c3ccc(C(F)(F)F)cc3)=NN2c2ccc(S(N)(=O)=O)cc2)cc1 (configuration not stated) > 30 µM
COc1ccc(C2CC(c3ccccc3C(F)(F)F)=NN2c2ccc(S(N)(=O)=O)cc2)cc1 (configuration not stated) > 30 µM
O=[N+]([O-])c1ccc(N2N=C(c3ccccc3)CC2c2ccccc2)cc1 (configuration not stated) > 30 µM
CCc1ccc(C2=NN(c3ccc(S(N)(=O)=O)cc3)C(c3ccc(F)cc3)C2)cc1 (configuration not stated) > 30 µM
Cc1ccc(C2CC(c3ccccc3)=NN2c2ccc(S(N)(=O)=O)cc2)cc1 (configuration not stated) > 30 µM
COc1ccc(C2CC(c3ccccc3)=NN2c2ccc(Cl)c(C(=O)O)c2)cc1OC (configuration not stated) > 30 µM
COc1ccc(C2CC(c3ccccc3Cl)=NN2c2ccc(S(N)(=O)=O)cc2)cc1 (configuration not stated) > 30 µM
Cc1onc(-c2ccccc2)c1-c1ccc(S(N)(=O)=O)cc1 > 30 µM
COc1ccc(C2CC(c3ccc(F)cc3)=NN2c2cccc(F)c2)cc1OC (configuration not stated) > 30 µM
COc1ccc(C2CC(c3ccc(Br)cc3)=NN2c2ccccc2Cl)cc1 (configuration not stated) > 30 µM
CN(C)c1ccc(C2CC(c3ccccc3)=NN2c2ccc([N+](=O)[O-])cc2)cc1 (configuration not stated) > 30 µM
COc1ccc(C2CC(c3ccccc3C)=NN2c2ccc(S(N)(=O)=O)cc2)cc1 (configuration not stated) > 30 µM
COc1ccc(C2CC(C)=NN2c2ccc(S(N)(=O)=O)cc2)cc1 (configuration not stated) > 30 µM
CN(C)c1ccc(C2CC(c3ccc(Cl)cc3)=NN2c2ccccc2)cc1 (configuration not stated) > 30 µM
COc1ccc(C2CC(c3ccc(C)cc3)=NN2c2ccc(S(N)(=O)=O)cc2)cc1 (configuration not stated) > 30 µM
Cc1ccc(-c2cc(C(F)(F)F)nn2-c2ccc(S(N)(=O)=O)cc2)cc1 > 30 µM

same assay, conditions: GST-Ras beads, Bodipy-FL-GTP binding, measured here: Ki calculated from EC50

Ki, 1.19 µM:
COc1ccc(C2=NN(c3ccccc3)C(c3ccccc3C(F)(F)F)C2)cc1 (configuration not stated)

Ki, 0.18 µM:
O=S(=O)(c1ccc(N2N=C(c3ccc(Br)cc3)CC2c2ccccc2)cc1)C(F)F (configuration not stated)

Ki, 0.24 µM:
COc1ccc(C2=NN(c3ccccc3)C(c3ccc(Cl)cc3)C2)cc1 (configuration not stated)

Ki, 0.01 µM:
NS(=O)(=O)c1ccc(N2N=C(c3ccc(Cl)cc3)CC2c2ccccc2)cc1 (configuration not stated)
